The experiment concerns the target T1, Dioclea violacea lectin (DVL) (Macropsychanthus violaceus, UniProt I1SB09).
T1 sequence (I1SB09 1-237): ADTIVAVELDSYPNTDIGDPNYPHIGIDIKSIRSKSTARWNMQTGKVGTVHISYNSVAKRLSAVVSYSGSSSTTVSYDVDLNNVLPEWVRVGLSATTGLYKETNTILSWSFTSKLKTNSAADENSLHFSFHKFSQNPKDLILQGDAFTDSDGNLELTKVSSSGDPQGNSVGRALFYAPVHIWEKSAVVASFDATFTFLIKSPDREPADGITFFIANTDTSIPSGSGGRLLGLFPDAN
Put plainly: fluorescence microscopy of FITC-lectin binding to fixed Lutzomyia migonei midgut, lectin blocked with sugar. To be noted: 0.1 M D-mannose, 37 °C, 30 min preincubation; carbohydrate recognition domain; FITC-labelled lectin 100 µg/mL.

Turning to `OC[C@H]1OC(O)[C@@H](O)[C@@H](O)[C@@H]1O` (stereo partly drawn) [D-mannose], the “fluorescence microscopy of FITC-lectin binding to fixed Lutzomyia migonei midgut” value is given as “when the midguts were treated with blocked DVL, a remarkable decrease in the fluorescence pattern”.
